The values below come from patent US7009051B2, “4-(2-pyridyl) piperazines having 5HT7 receptor agonist activity” (Pfizer Inc, priority 2001, dated 2006).

Counter-ions that a name gives are not always drawn.

For `c1cncc(COc2cccc(N3CCNCC3)n2)c1` (as salt: HCl) [II, 1-[6-(Pyridin-3-ylmethoxy)-pyridin-2-yl]-piperazine], the melting point (commonly the temperature of the solid-liquid transition) lay within 141 to 143 °C.
